# According to patent US10568869B2, “Methods for diagnosing and treating prostate cancer” (Cornell University, priority 2012, dated 2020):
# B1: shRNA: adenovirus-driven anti-sAC-directed shRNA, hairpin construct of SEQ ID NO: 10 targeting rat sAC mRNA (nucleic acid)
# chain: GGGGTACCAAAAAAGTGGAAAGTGGAACGAAAGCATCTCTTGAATGCTTTCGTTCCACTTTCCACAAACAAGGCTTTTCTCCAAG
# How the values were obtained:
# LNCaP cells [1] = experiment: Western blot of Rap1-GTP, Rap1, phospho-B-Raf and B-Raf (EPAC activity); type: cell-based, human
# Procedure: (§1) FIGS. 5A-5E are graphs and images which illustrate experimental data depicting that sAC controls proliferation and the cell cycle in a PKA-independent and EPAC-dependent manner. FIGS. 5A-5C are graphs depicting statistical analyses of cell number per dish (FIG. 5A), LDH activity in the cell culture medium (relative units (r.u.)) (FIG. 5B), and G2 phase populations (FIG. 5C). Treatments (all 24 hours) were as follows: […], 100 mol/liter 8-pCPT-cAMP (8-pCPT), 100 mol/liter N6-benzoyl-cAMP (6-Bnz), 3 mol/liter H-89, or 100 mol/liter (Rp)-cAMP-S(RpcAMP). […] FIGS. 5D and 5E are images depicting Western blot analysis of the active form of Rap1 (Rap1-GTP) and phosphorylated forms of B-Raf performed with LNCaP cell lysates. Treatment conditions were similar to those described for FIGS. 5A-5C. Treatment was performed for 18 hours. All Western blot data are representative of four to six independent experiments with similar results.
# Production of sAC protein in the LNCaP and PC3 prostate carcinoma cell lines was analyzed by Western blot. In particular, cells were lysed in Laemmli buffer containing 2% SDS, 10% glycerol, 5% 2-mercaptoethanol, 0.002% bromphenol blue, and 0.0625 mol/liter Tris-HCl. Equal amounts of total proteins were separated on SDS-polyacrylamide gels and transferred to a nitrocellulose membrane. The following primary antibodies were used: sAC (clones R21 and R40; provided by Dr. J. Buck) and actin (Millipore, Billerica, Mass.). After incubation with peroxidase-linked and horseradish peroxidase-labeled secondary antibodies, specific bands were visualized by chemiluminescence using an ECL Plus kit. Equivalent sample loading was confirmed by stripping the membranes with RESTORE™ Western blot stripping buffer (Thermo Fisher Scientific, Rockford, Ill.), followed by treatment with anti-actin antibody.
# To test the role of EPAC in proliferation control, the effects of inhibition of sAC on EPAC activity in LNCaP cells was examined.
# LNCaP cells [2] = experiment: Cell proliferation (cell number per dish); type: cell-based, human; conditions: for effect on proliferation in cells treated with the sAC inhibitor KH7: co-treatment with KH7, 24 hours; for effect on proliferation: LNCaP control cells, H-89 3 μmol/L, RpcAMP 100 μmol/L
# Procedure: (§2) FIG. 2 is a graph which illustrates experimental data depicting the effects of the sAC inhibitor KH7 on prostate cancer cell proliferation. Statistical analyses are presented for cellular cAMP content and cell number per dish (starting density: 150,000 cells/dish) 24 hours after KH7 treatment. Values are the mean±SEM (n=5-8). *p<0.05 vs. 0 μmol/L KH7.
# (§3) FIG. 3A is an image depicting data from Western blot analysis of lysates of LNCaP cells after treatment with sAC-specific or scrambled siRNA for 72 hours (left panel) or after treatment with sAC-specific or scrambled shRNA for 72 hours (right panel). FIGS. 3B-D are graphs and images which illustrate experimental data depicting the effects of siRNA or shRNA transfection on cell proliferation (FIG. 3B), LDH activity in the cell culture medium (relative units (r.u.)) (FIG. 3C), and cleavage of caspase-3 (FIG. 3D). […] The Western blot data are representative of five independent experiments with similar results.
# as §1
# (§4) The androgen-sensitive LNCaP (ATCC-Nr. CRL-1740D) human prostate carcinoma cell line, the androgen-insensitive PC3 (ATCC-Nr. CRL-1435D) human prostate carcinoma cell line, and neuroblastoma cell line SH-SY5Y (ATCC-Nr. CRL-2266) were purchased from the American Type Culture Collection, and human normal prostate epithelial cell line PNT2 was purchased from Sigma-Aldrich (Cat. Nr. 95012613). Cells were expanded and frozen in aliquots within four weeks of purchase. Cells were thawed and cultured for no more than three further passages. PNT2 cells were cultured in medium RPMI1640 supplemented with 10% fetal calf serum, glutamine and antibiotics. All other cells were cultured in Dulbecco's modified Eagle's medium that was supplemented with 5% fetal calf serum, glutamine, and antibiotics. The cells (1.5×10^5) were seeded in culture medium with 2% fetal calf serum 24 hours prior to each experiment.
# To further substantiate the role of sAC in cell growth and death, the sAC gene expression/sAC protein production was suppressed in LNCaP cells. Two different methods of sAC knockdown, lipofectamine-based transfection with sAC-specific siRNA or adenoviral transfection with shRNA, were used to further rule out the possibility of KH7 off-target effects. For lipofectamine-based siRNA transfection, LNCaP cells were treated with siRNA duplexes that consisted of four different predesigned sequences targeting the human sAC mRNA sequence (GenBank Accession No. NM_001167749; Dharmacon, Lafayette, Colo.; catalogue no. L-006353-00,). In the control group, cells were treated with scrambled non-targeting siRNA (Dharmacon, Lafayette, Colo.; catalogue no. D-001810-10). Cells were transfected following the manufacturer's instructions. Briefly, cells were seeded 1 day before transfection in Dulbecco's modified Eagle's medium that was supplemented with 2% fetal calf serum without antibiotics.
# LNCaP cells [3] = experiment: LDH activity in the cell culture medium; type: cell-based, human; conditions: for effect on cytotoxicity (LDH activity): 24 hours, H-89 3 μmol/L, RpcAMP 100 μmol/L
# Procedure: as §3, §1
# LNCaP cells [4] = experiment: FACS-based cell cycle analysis; design: species or system human; conditions: for effect on distribution of the cell population within the cell cycle: 24 hours, H-89 3 μmol/L, RpcAMP 100 μmol/L
# Excerpt: (§5) Treatment conditions were similar to those described for FIGS. 4A-4D. All Western blot data are representative of three to five independent experiments with similar results.
# as §1
# To understand the mechanisms responsible for the anti-proliferative effect of sAC inhibition, cell cycle analysis was performed using FACS-based cell cycle analysis. Specifically, LNCaP cells were fixed with 70% alcohol, stained with propidium iodide, and treated with RNase (BD Biosciences, San Jose, Calif.). DNA content was analyzed using a FACSCALIBUR™ flow cytometer (BD Biosciences, San Jose, Calif.) and FLOWJO™ software.
# LNCaP cells [5] = experiment: Caspase-3 cleavage (Western blot); type: cell-based, human
# Procedure: as §3, §5
# Production of sAC protein in the LNCaP and PC3 prostate carcinoma cell lines was analyzed by Western blot. In particular, cells were lysed in Laemmli buffer containing 2% SDS, 10% glycerol, 5% 2-mercaptoethanol, 0.002% bromphenol blue, and 0.0625 mol/liter Tris-HCl. Equal amounts of total proteins were separated on SDS-polyacrylamide gels and transferred to a nitrocellulose membrane. The following primary antibodies were used: sAC (clones R21 and R40; provided by Dr. J. Buck) and actin (Millipore, Billerica, Mass.). […]
# PC3 cells [6] = experiment: Cellular cAMP content after KH7 treatment; type: cell-based, human; conditions: PC3, 24 hours, dose-dependent
# Procedure: as §2
# as §4, with “experiment. […]” for “experiment.”
# LNCaP cells [7] = experiment: Cellular cAMP content after KH7 treatment; type: cell-based, human; conditions: 24 hours, dose-dependent
# Procedure: as §2
# as §4, with “experiment. […]” for “experiment.”
# LNCaP cells [8] = experiment: Western blot of proteins controlling cell cycle progression (cyclins, CDK1); conditions: sAC inhibition
# Procedure: Production of sAC protein in the LNCaP and PC3 prostate carcinoma cell lines was analyzed by Western blot. […] Equal amounts of total proteins were separated on SDS-polyacrylamide gels and transferred to a nitrocellulose membrane. […] After incubation with peroxidase-linked and horseradish peroxidase-labeled secondary antibodies, specific bands were visualized by chemiluminescence using an ECL Plus kit.
# To investigate how sAC controls the G2/M transition, the expression of various cyclins and CDK1 was examined via Western blot as described above using the following primary antibodies: CDK1, phospho-CDK1, cyclin B1, cyclin D1, cyclin D3, and cyclin E2.
# tmAC = conditions: up to 100 μmol/L; cited from earlier work
# PC3 cells [9] = experiment: Cell proliferation (cell number per dish); type: cell-based, human; conditions: PC3, 24 hours, dose-dependent
# Procedure: as §2
# as §4, with “experiment. […]” for “experiment.”
# PC3 and LNCaP cells = experiment: Cell growth and death analysis after 48 hours KH7 (LDH release, subG1, caspase-3 cleavage); type: cell-based, human; conditions: 20 μmol/L
# Excerpt: as §4
# Treatment with KH7 reduced the intracellular cAMP content and suppressed cell proliferation in a dose-dependent manner in both cell lines with a maximal effect at 20 μmol/L, as shown in FIG. 2.
# soluble guanylyl cyclase = conditions: up to 100 μmol/L; cited from earlier work
# [10] = co-treatment with KH7, 24 hours
molecule,measurement,setting,value
"Nc1ncnc2c1nc(Sc1ccc(Cl)cc1)n2[C@@H]1O[C@@H]2COP(=O)(O)O[C@H]2[C@H]1O [8-pCPT, 8-pCPT-cAMP]",effect on KH7-induced change of Rap1-GTP expression,LNCaP cells [1]; co-treatment with KH7,reversed
same,effect on proliferation in cells treated with the sAC inhibitor KH7,LNCaP cells [2]; LNCaP,prevented
same,effect on LDH release induced by sAC inhibition,LNCaP cells [3]; [10],prevented
same,effect on cell cycle block induced by sAC inhibition,LNCaP cells [4]; [10],prevented
O=S(=O)(NCCNC/C=C/c1ccc(Br)cc1)c1cccc2cnccc12 [H-89],effect on proliferation,LNCaP cells [2]; 24 hours,no effect
same,effect on cytotoxicity (LDH activity),LNCaP cells [3],no effect
same,effect on distribution of the cell population within the cell cycle,LNCaP cells [4],no effect
"CC(Sc1nc2ccccc2[nH]1)C(=O)N/N=C/c1cc(Br)ccc1O (stereo not drawn) [KH7, (E)-2-(1H-benzo[d]imidazol-2-ylthio)-N′-(5-bromo-2-hydroxybenzylidene)propanehydrazide]",Rap1-GTP (active form of Rap1) expression,LNCaP cells [1]; 18 hours,significantly depleted
same,phosphorylation of B-Raf,LNCaP cells [1]; 18 hours,suppressed
same,"expression of Rap1, optical band density as ratio to actin band density","LNCaP cells [1]; KH7 treatment, n=6, 0.79+0.01 in control",0.81+0.07
same,"expression of B-Raf, optical band density as ratio to actin band density","LNCaP cells [1]; KH7 treatment, n=8, 1.13+0.06 in control",1.02+0.04
same,time at which cleavage of caspase-3 first appeared,LNCaP cells [5]; time course over 48 hours,24 h
same,"reduction of intracellular cAMP content, concentration of maximal effect",PC3 cells [6],20 µmol/L
same,"reduction of intracellular cAMP content, concentration of maximal effect",LNCaP cells [7],20 µmol/L
same,expression of cyclin D1,LNCaP cells [8],not altered
same,expression of cyclin D3,LNCaP cells [8],not altered
same,expression of cyclin E2,LNCaP cells [8],not altered
same,effect on tmAC,tmAC,no effect
same,"suppression of cell proliferation, concentration of maximal effect","LNCaP cells [2]; LNCaP, 24 hours, dose-dependent",20 µmol/L
same,"suppression of cell proliferation, concentration of maximal effect",PC3 cells [9],20 µmol/L
same,apoptosis (subG1 population and cleavage of caspase-3),PC3 and LNCaP cells,apoptosis
same,effect on soluble guanylyl cyclase,soluble guanylyl cyclase,no effect
same,effect on cell cycle phases,"LNCaP cells [4]; 24 hours, or siRNA transfection",cell cycle arrest at the G2 phase
same,time at which percentage of cells in G2-phase reached maximal value,LNCaP cells [4]; time course over 48 hours,24 h
same,time at which percentage of cells in G2-phase started to rise,LNCaP cells [4]; time course over 48 hours,12 h
O=C(Nc1ncnc2c1ncn2[C@@H]1O[C@@H]2COP(=O)(O)O[C@H]2[C@H]1O)c1ccccc1 [N^6-benzoyl-cAMP],effect on proliferation,LNCaP cells [2]; 24 hours,no effect
same,effect on proliferation in cells treated with the sAC inhibitor KH7,LNCaP cells [2]; LNCaP,no effect
"Nc1ncnc2c1ncn2[C@@H]1O[C@@H]2CO[P@@](O)(=S)O[C@H]2[C@H]1O [RpcAMP, (Rp)-cAMP-S]",effect on proliferation,LNCaP cells [2]; 24 hours,no effect
same,effect on cytotoxicity (LDH activity),LNCaP cells [3],no effect
same,effect on distribution of the cell population within the cell cycle,LNCaP cells [4],no effect
B1,caspase-3 cleavage after sAC knockdown,LNCaP cells [5]; 72 hours,led to caspase-3 cleavage
same,cell numbers after sAC knockdown,"LNCaP cells [2]; LNCaP, 72 hours, reduction from 6.37×10^5",3.56×10^5
same,LDH release after sAC knockdown,LNCaP cells [3]; 72 hours,induced LDH release
